The results in this text go back to PubChem BioAssay AID1053179 (The Scripps Research Institute Molecular Screening Center, 2014).

The source made the active and inactive calls.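 Rule for the calls: active = IC50 for loss of cell viability, measured as ATP drop, at or below 10 µM; inactive = the rest.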

For the experiment, the system named is Jurkat viability, CellTiter-Glo ATP luminescence. In words: viability loss in human Jurkat cells – cell-based, luminescence, powder samples, cytotoxicity control for TAAR1 agonist/antagonist project, late-stage follow-up (AID 1053179).
For orientation: IC50 means the concentration at which inhibition is half-maximal. As for `Cc1ccc(C(=O)CCN2CCC(c3ccccc3)C2)cc1` (configuration not stated), the IC50 was 5.06 µM.
As to `N#Cc1c(C(F)(F)F)cc(-c2ccc(Cl)cc2)nc1SCC(=O)N1CCCCCC1`, the IC50 is > 83.3 µM (inactive).
The figure for `N#Cc1c(C(F)(F)F)cc(-c2ccc(Cl)cc2)nc1SCC(=O)Nc1ncccn1` is 53 µM (inactive).
The value for `N#Cc1c(C(F)(F)F)cc(-c2ccc(Cl)cc2)nc1SCC(=O)N1CCCC1` was > 83.3 µM (inactive).
The figure for `O=C(CCN1CCC(c2ccccc2)C1)c1ccccc1` (configuration not stated) is 3.95 µM; for `CC(CN1CCCC1Cc1ccccc1)C(=O)c1ccc2c(c1)OCCO2` (configuration not stated) it is 3.66 µM; for `COc1cc(C(=O)CCN2CCC(c3ccccc3)C2)cc(OC)c1OC` (configuration not stated) it is 7.06 µM.
